In one assay the target is T1, FAP1 (Homo sapiens, UniProt Q12923).
T1 construct: FAP1, residues 2124-2485; made in house; host or cells: E. coli BL21(DE3)
The assay can be described thus: PTP panel IC50, 60-min preincubation. The assay is classed as biochemical. The text has this:
(§1) Building on the results from the SAR “by‐catalog” study, the following medicinal chemistry effort was prioritized on a systematic survey of the central phenyl scaffold, the sulfonamide linker, and the distal aryl moiety with the goal of a multiparameter optimization of potency and selectivity for SHP1 inhibition as well as drug‐like properties such as aqueous solubility and cell permeability. Additionally, given the crucial requirement for targeted covalent inhibitors to maintain tempered reactivity that enables selective target engagement and reduces cross‐reactivity to by‐standing nucleophiles in the cellular milieu,^[ [74], [75] ^] the medicinal chemistry campaign also sought to lower SHP1 covalent inhibitor reactivity with GSH and cytotoxicity. Careful assessment and evaluation of the SAR and other desirable drug‐like attributes of all synthesized molecules led to the identification of M029 (Figure 2a and Figure S2D, manuscript in preparation). […] To determine the selectivity of M029 for SHP1, we measured the IC50 value for M029‐mediated inhibition of a number of PTPs after a 60‐min preincubation. […] To assess potential direct interactions between SHP1 and M029, we utilized the thermal shift assay to measure the thermal stability of SHP1 in the presence of M029. […] To corroborate the covalent interaction between SHP1 and M029, a single SHP1‐M029 covalent adduct was observed by electrospray protein mass spectrometry when SHP1 was incubated with M029 (Figure 2e). […] This is in line with the expectation that SHP1 inactivation by M029 occurs through nucleophilic substitution of the chlorine from the chloroacetamide warhead.
(§2) To further confirm the time-dependent inhibition and determine the IC50 of acquired hits, repurchased compounds from Enamine were serially diluted in a 96-well plate, followed by the addition of proteins at 200 nM. After 10-minute and 60-minute preincubation, 2 µL of the mixture was transferred into 100 µM 6,8-Difluoro-4-Methylumbelliferyl Phosphate (DiFMUP, Invitrogen, cat# D6567) at a final volume of 200 µL. The reaction was allowed to proceed for 5 minutes and quenched by the addition of 40 µl of a 160 µM solution of bpV(Phen) (Sigma-Aldrich, cat# SML0889). The fluorescence signal was measured using a CLARIOstar Plus Microplate Spectrophotometer (BMG Labtech) using excitation and emission wavelengths of 340 nm and 450 nm, respectively. Data were fitted using Prism GraphPad 10.1.1.

In another assay the target is T2, STEP (Homo sapiens, UniProt P54829).
T2 construct: STEP, residues 258-539; made in house; host or cells: E. coli BL21(DE3)
The assay can be described thus: PTP panel IC50, 60-min preincubation. The assay is classed as biochemical.
Source text: as §1, §2

Another assay addresses T3, MKP5 (Homo sapiens, UniProt Q9Y6W6).
T3 construct: MKP5, residues 320-647; made in house; host or cells: E. coli BL21(DE3)
The assay can be described thus: PTP panel IC50, 60-min preincubation. The assay is classed as biochemical.
Source text: as §1, §2

Another assay addresses PEZ (Homo sapiens, UniProt Q15678). Put plainly: PTP panel IC50, 60-min preincubation. The assay is classed as biochemical.
Source text: as §1, §2

The target of the next assay is T4, HePTP (Homo sapiens, UniProt P35236).
T4 construct: HePTP, residues 22-360; made in house; host or cells: E. coli BL21(DE3)
The assay can be described thus: PTP panel IC50, 60-min preincubation. The assay is classed as biochemical.
Source text: as §1, §2

In the next assay the target is Ssu72 (Homo sapiens, UniProt Q9NP77). Put plainly: PTP panel IC50, 60-min preincubation. The assay is classed as biochemical.
Source text: as §1, §2

In the next assay the target is T5, CD45 (Homo sapiens, UniProt P08575).
T5 construct: CD45, residues 620-1236; made in house; host or cells: E. coli BL21(DE3)
The assay can be described thus: PTP panel IC50, 60-min preincubation. The assay is classed as biochemical.
Source text: as §1, §2

A further assay addresses PP5 (Homo sapiens, UniProt P53041). The assay can be described thus: PTP panel IC50, 60-min preincubation. The assay is classed as biochemical.
Source text: as §1, §2

In a further assay the target is VHR (Homo sapiens, UniProt P51452). The assay can be described thus: PTP panel IC50, 60-min preincubation. The assay is classed as biochemical.
Source text: as §1, §2

The next assay has as its target T6, PEST (Homo sapiens, UniProt Q05209).
T6 construct: PTP-PEST, residues 5-304; made in house; host or cells: E. coli BL21(DE3)
Put plainly: PTP panel IC50, 60-min preincubation. The assay is classed as biochemical.
Source text: as §1, §2

In the next assay the target is T7, LMPTP (Homo sapiens, UniProt P24666).
T7 construct: LMWPTP, residues 1-158; made in house; host or cells: E. coli BL21(DE3)
The assay can be described thus: PTP panel IC50, 60-min preincubation. The assay is classed as biochemical.
Source text: as §1, §2

Another assay has as its target T8, CDC14A (Homo sapiens, UniProt Q9UNH5).
T8 construct: CDC14A, residues 1-413; made in house; host or cells: E. coli BL21(DE3)
The assay can be described thus: PTP panel IC50, 60-min preincubation. The assay is classed as biochemical.
Source text: as §1, §2

For a further assay, the target named is T9, TCPTP (Homo sapiens, UniProt P17706).
T9 construct: TC-PTP, residues 1-387; made in house; host or cells: E. coli BL21(DE3)
Put plainly: PTP panel IC50, 60-min preincubation. The assay is classed as biochemical.
Source text: as §1, §2

Another assay relates to IL-2 in Jurkat T cells. The assay can be described thus: IL-2 mRNA / production. The assay is classed as cell-based. As to conditions: dose response. Here is the method:
Supernatants from lysed cells were reduced, treated with iodoacetamide to cap thiol residues, and digested by trypsin for bottom‐up proteomics analysis. […] LCK is the direct substrate of SHP1 and ERK1/2, and PLCγ is the downstream effector protein of LCK‐mediated TCR signaling. […] Statistical analyses were performed with Graphpad Prism software 10.4.2 through the one‐way ANOVA test using Turkey post‐hoc comparison. ****p < 0.0001 was considered significant.
To further confirm M029 cellular target engagement, we investigated the effect of M029 on T cell function. SHP1 plays a negative role in T cells, and deletion of SHP1 in T cells lowers the activation threshold and enhances antitumor immunity.^[ [30], [31], [32], [33] ^] Mechanistically, SHP1 attenuates T cell receptor (TCR) signaling via dephosphorylation of the lymphocyte‐specific protein tyrosine kinase LCK.^[ [31], [84], [85], [86] ^] T cell activation leads to increased expression and secretion of interleukin 2 (IL‐2)^[ [87] ^] while the removal of SHP1 in T cells enhances IL‐2 production, cell proliferation, and cytolysis capacity.^[ [30], [32] ^] Accordingly, we sought to assess the impact of targeting SHP1 with M029 on TCR‐LCK signaling and T cell activation. […] M029 also dose‐dependently promoted IL‐2 production (Figure 4c). […] These findings corroborate that the observed increase in LCK phosphorylation and its downstream signaling indeed resulted from SHP1 inhibition by M029.

This note sets out measurements from PMC12833730, “Discovery of a First‐in‐Class Covalent Allosteric SHP1 Inhibitor with Immunotherapeutic Activity” (Angewandte Chemie (International Ed. in English), 2025).

Each structure is given as a SMILES string. “Also recorded” adds a separate entry of the source.

T6 sequence (Q05209 5-304): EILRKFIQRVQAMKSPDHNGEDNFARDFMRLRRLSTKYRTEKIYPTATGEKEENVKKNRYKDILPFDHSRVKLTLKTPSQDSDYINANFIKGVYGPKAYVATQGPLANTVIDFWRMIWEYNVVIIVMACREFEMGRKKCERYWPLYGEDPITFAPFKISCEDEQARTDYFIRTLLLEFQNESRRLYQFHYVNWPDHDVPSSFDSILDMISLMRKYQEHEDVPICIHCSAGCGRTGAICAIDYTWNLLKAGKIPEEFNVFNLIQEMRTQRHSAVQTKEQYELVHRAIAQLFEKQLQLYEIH
T2 sequence (P54829 282-563, species assumed): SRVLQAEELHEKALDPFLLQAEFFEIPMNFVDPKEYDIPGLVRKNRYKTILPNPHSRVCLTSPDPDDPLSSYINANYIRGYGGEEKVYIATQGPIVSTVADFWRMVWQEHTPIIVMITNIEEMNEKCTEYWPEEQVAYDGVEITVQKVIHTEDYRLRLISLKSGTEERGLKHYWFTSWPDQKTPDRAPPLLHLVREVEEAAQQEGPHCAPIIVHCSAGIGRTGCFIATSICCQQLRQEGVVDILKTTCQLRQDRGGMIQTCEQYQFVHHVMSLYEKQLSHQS
T8 sequence (Q9UNH5 1-413, species assumed): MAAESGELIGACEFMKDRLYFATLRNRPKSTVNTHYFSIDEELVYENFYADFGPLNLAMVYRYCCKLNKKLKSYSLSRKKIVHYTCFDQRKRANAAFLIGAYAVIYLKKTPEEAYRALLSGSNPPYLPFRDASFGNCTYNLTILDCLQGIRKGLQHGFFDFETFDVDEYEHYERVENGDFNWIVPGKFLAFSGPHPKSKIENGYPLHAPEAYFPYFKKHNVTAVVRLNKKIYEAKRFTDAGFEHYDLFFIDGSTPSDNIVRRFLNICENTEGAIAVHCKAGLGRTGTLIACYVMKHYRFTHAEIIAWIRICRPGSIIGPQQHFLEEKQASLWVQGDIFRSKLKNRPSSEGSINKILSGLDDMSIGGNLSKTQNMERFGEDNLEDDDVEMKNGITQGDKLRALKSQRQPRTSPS
Chain of PP5 (P53041 whole entry): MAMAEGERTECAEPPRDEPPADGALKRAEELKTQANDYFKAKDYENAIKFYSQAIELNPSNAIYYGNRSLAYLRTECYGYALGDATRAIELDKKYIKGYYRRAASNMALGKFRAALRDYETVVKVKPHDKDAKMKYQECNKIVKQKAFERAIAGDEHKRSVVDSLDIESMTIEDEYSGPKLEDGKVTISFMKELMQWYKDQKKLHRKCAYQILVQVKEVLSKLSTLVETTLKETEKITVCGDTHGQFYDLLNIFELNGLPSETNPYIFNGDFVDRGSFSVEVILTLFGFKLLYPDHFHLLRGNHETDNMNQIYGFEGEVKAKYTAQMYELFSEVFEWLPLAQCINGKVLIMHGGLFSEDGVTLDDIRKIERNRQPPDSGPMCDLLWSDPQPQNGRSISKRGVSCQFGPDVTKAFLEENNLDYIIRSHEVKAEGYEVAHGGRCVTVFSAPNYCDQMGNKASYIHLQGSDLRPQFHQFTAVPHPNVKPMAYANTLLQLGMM
T5 sequence (P08575 620-1236, species assumed): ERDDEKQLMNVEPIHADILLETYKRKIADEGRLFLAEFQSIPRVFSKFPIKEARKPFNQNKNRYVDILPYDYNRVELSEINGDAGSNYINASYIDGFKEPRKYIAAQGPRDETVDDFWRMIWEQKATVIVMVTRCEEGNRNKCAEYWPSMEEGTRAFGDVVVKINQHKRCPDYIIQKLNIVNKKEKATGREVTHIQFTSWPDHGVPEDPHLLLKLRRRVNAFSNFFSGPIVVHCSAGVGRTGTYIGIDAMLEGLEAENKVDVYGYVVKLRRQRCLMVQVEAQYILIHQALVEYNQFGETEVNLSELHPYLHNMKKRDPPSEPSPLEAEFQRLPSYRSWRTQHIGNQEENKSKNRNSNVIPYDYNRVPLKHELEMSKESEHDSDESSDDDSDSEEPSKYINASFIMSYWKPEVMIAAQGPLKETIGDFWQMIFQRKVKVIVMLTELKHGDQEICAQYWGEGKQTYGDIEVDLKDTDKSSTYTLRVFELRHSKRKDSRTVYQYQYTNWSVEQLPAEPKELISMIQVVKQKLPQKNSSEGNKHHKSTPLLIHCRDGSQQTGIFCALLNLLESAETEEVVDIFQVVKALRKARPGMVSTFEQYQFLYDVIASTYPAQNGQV
Chain of VHR (P51452 whole entry, species assumed): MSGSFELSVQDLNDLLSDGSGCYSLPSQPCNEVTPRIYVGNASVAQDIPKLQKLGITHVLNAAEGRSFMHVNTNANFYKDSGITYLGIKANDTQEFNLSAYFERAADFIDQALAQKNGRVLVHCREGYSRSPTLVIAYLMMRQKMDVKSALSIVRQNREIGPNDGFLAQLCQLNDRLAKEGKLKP
Chain of PEZ (Q15678 whole entry, species assumed): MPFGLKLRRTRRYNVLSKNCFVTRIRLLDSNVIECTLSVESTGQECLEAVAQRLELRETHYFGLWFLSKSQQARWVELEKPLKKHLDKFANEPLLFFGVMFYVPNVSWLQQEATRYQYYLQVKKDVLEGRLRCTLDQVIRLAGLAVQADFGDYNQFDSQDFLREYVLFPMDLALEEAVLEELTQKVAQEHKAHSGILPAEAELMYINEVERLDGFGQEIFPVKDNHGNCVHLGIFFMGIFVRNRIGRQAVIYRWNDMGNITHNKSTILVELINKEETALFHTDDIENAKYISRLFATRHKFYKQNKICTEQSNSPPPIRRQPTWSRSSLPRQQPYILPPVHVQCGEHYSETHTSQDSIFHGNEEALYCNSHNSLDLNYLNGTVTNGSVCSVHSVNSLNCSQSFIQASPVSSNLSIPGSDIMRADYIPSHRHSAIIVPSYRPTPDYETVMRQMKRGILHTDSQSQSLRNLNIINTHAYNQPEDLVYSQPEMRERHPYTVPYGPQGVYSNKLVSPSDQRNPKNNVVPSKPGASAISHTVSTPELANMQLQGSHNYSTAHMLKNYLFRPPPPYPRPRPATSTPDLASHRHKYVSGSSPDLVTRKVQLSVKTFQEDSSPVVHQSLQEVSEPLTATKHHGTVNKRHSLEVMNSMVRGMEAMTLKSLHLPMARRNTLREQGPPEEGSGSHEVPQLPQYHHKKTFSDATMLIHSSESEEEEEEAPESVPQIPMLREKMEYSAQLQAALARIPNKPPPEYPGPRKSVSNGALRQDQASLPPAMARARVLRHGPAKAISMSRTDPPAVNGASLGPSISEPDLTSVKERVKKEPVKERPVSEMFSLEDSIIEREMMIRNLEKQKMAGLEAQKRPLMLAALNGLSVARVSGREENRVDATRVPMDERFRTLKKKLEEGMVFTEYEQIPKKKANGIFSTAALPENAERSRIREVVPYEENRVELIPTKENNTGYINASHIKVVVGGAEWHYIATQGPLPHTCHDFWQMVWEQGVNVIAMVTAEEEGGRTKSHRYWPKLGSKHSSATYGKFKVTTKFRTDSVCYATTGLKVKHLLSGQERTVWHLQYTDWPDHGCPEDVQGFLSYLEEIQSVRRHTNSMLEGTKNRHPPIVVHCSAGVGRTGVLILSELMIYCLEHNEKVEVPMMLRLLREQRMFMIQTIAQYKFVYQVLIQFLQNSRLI
T7 sequence (P24666 whole entry, the tested form may be a part): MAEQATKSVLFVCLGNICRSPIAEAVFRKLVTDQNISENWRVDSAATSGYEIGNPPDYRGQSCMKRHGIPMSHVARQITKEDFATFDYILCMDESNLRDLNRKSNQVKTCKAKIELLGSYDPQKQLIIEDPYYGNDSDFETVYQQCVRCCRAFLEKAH
T3 sequence (Q9Y6W6 320-467 limits assumed, species assumed): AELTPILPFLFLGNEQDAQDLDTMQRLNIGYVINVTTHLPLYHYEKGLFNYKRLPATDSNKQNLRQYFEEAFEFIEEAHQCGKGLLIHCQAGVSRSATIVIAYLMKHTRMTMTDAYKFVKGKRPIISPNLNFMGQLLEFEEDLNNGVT
T1 sequence (Q12923 2124-2485): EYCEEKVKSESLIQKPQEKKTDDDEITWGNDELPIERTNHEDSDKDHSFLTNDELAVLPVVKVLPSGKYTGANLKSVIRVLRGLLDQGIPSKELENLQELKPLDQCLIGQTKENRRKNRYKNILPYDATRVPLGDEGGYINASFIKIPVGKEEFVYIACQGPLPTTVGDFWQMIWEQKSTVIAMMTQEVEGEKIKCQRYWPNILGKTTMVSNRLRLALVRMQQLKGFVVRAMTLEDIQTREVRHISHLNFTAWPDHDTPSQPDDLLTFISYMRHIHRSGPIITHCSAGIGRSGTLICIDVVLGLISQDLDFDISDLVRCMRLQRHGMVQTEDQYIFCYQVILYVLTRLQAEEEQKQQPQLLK
T9 sequence (P17706 1-387 isoform P17706-2): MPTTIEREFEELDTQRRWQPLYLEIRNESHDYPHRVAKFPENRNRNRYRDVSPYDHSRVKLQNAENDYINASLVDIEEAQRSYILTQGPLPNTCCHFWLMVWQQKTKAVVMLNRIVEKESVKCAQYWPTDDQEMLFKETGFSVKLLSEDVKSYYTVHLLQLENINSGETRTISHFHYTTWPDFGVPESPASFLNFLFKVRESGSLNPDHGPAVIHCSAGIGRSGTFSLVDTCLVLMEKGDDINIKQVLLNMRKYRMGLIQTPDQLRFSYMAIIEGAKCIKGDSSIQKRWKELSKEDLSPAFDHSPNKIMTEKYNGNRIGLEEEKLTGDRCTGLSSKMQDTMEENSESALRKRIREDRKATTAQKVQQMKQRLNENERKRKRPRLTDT
Chain of Ssu72 (Q9NP77 whole entry, species assumed): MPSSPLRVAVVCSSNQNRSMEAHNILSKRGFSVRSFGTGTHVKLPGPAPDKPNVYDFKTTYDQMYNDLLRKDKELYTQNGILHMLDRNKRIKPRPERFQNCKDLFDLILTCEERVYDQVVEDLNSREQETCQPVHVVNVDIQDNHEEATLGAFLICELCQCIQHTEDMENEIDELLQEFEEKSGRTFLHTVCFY

For `N#Cc1ccsc1NS(=O)(=O)c1ccc(NC(=O)CCl)cc1` [M029, 2-Chloro-N-(4-(N-(3-cyanothiophen-2-yl)sulfamoyl)phenyl)acetamide], the 50% inhibitory concentration (IC50) against FAP1 is above 200 µM; at STEP, above 200 µM; against MKP5, 165 ± 20.1 µM; against PEZ, 172 ± 19.3 µM; at HePTP, above 200 µM; on Ssu72 it was above 200 µM. The half-maximal inhibitory concentration (IC50) against CD45 is 139 ± 38.5 µM; against PP5, above 200 µM; against VHR it was 180 ± 46.8 µM; on PEST, above 200 µM; at LMPTP, above 200 µM; against CDC14A, above 200 µM. On TCPTP, this compound yielded an IC50 of 150 ± 31.1 µM. Further, the “IL-2 production / relative IL-2 mRNA level” value in the assay on IL-2 in Jurkat T cells was “increased; also recorded: promoted”.
